Assay results: patent US11193110B2, “Methods to generate gastrointestinal epithelial tissue constructs” (The University of North Carolina at Chapel Hill, priority 2015, dated 2021)
“Also recorded” adds a separate entry of the source.

Tests used:
[1] = test system: primary intestinal epithelial cells; experiment: screen of dietary compounds and natural products on primary intestinal epithelial cells on collagen hydrogel (Hoechst 33342, EDU, alkaline phosphatase, Muc2); format: cell-based; settings: 48 h incubation at Table 1 concentration; for growth suppression: both number of nuclei and S-phase cells significantly lower than control: p<0.01 versus control cells in ENR-W; for S-phase or proliferating cells (EDU) / number of nuclei / cell number (Hoechst 33342): relative to control cells cultured in ENR-W; for enterocyte phenotype (alkaline phosphatase expression): p=0.01 (#42), p=0.02 (#31), p=0.002 (#51)
From the text: FIG. 11. The impact of dietary compounds and natural products on primary colonic epithelium. The percentage of the collagen Daiszein (aglycone of daidzen) surface area occupied by cells (Hoechst 33342-positive) and the normalized EDU (A), alkaline phosphatase and mucin2-positive areas (B) were plotted against the compound number. The EDU, alkaline phosphatase and Muc2 areas were normalized to the total cell area. Alphabetic headings refer to categories described in Table 1.
Strategies to screen the vast number of dietary and metabolite compounds for their impact on proliferation, differentiation and other cell behaviors in the intestine have become increasingly important. However, major challenges exist due to a lack of technologies capable of faithfully duplicating the actions of these compounds on normal, healthy colonic cells. […] These attributes are central to intestinal barrier function and repair in the face of repeated chemical, physical, immune and infectious insults. Additionally controlled proliferation and terminal differentiation are key to avoiding an oncogenic state. Metabolites or natural products minimizing intestinal-cell proliferation without cell death, enhancing cell proliferation, or directing cells into the differentiated lineages are of profound interest for health maintenance and as therapeutics. The compounds represented a range of chemical classes with diverse or unknown impact on primary intestinal cells including fatty acids, bile acids, flavenoids, phytoestrogens, phenols, terpenoids, nitrates, and others. 75,000 cells were cultured on the collagen hydrogel with ENR-W (but with 10 ng/mL Wnt-3A) for 24 h to enable cells to attach to the surface, followed by incubation with the dietary/natural compounds for 48 h. The cells were then analyzed sequentially for four attributes: nuclei (Hoechst 33342), S-phase or proliferating cells (EDU), enterocyte phenotype (high alkaline phosphatase), and goblet cell marker (Muc2) (FIGS. 11A-B). […] In particular, glucosinolates (#68, #69, #70), responsible for the bitterness of cabbage and brussel sprouts, are toxic when consumed at high concentrations and this may in part be due to their direct effects on intestinal cells. […] These included the most of the phenols assayed such as gallic acid (#28), ellagic acid (#29), and punicalagin (#31) but also compounds such as valproate (#6) and […]-carotene (#58) all of which are recognized in the literature as inducing cell differentiation. […] Molecules promoting enterocyte formation may exert some of their beneficial effects by enhancing intestinal barrier and/or absorptive function and thus may be worthy of additional investigation. […] Matairesinol increases COX-2-derived prostaglandin E2 in Caco-2 cells and prostaglandin E2 has been characterized as inducing Goblet cell formation in the colon to increase mucous secretion. Screening primary colon epithelium directly links the matairesinol to increased mucous production and this may be through a prostaglandin E pathway.

CYP1A1 = experiment: ethoxyresorufin O-deethylase (EROD) assay of CYP1A1 induction in the 2D colonic epithelial monolayer; format: cell-based, mouse; settings: 0.1 μM TCDD
Description: FIG. 7. […] Top panel, day 0. Bottom panel, day 5. White dotted line indicates the perimeter of the insert. (B) SEM images of 2D monolayer. […] (C) Basal EROD activity and inducibility in 2D monolayer cells. 2D monolayer was cultured under ENR-WB for 5 days. […] CYP1A1 enzyme activity was determined using the ethoxyresorufin O-deethylase (EROD) assay, n=3.
Intestine is a vital organ that has many important functions (such as absorption, secretion, etc.). One function is metabolism through cytochrome P450 (CYP) enzyme activity that provides the principal, initial source of biotransformation/detoxification of ingested xenobiotics (Kaminsky, L. S. et al., Critical Reviews in Toxicology 21, 407-422 (1992)). Among the CYPs, CYP1A1 plays a physiological role in the degradation of estradiol into 2-OH-estradiol (Paine, M. F. et al., Drug Metabolism and Disposition 27, 360-364 (1999)). In vivo, CYP1A1 in rat intestines can be induced by feeding the rats with polycyclic aromatic hydrocarbons (PAHs) (Martignoni, M. et al., Chemico-Biological Interactions 151, 1-11 (2004)). […] The CYP1A1 enzyme activity was determined using an ethoxyresorufin O-deethylase (EROD) assay (Jones, S. P. et al., Ecotoxicology 23, 802-808 (2014)).

Caco-2 cells = settings: cited from earlier work

Row | Compound | S-phase or proliferating cells (EDU) [1] | number of nuclei / cell number (Hoechst 33342) [1] | also measured
1 | S=C=NCc1ccccc1 [#68, Glucotropaeolin isothiocyanate] |  |  | growth suppression: both number of nuclei and S-phase cells significantly lower than control [1]: growth suppressive
2 | O=S(=O)(O)ON=C(CCc1ccccc1)S[C@@H]1O[C@H](CO)[C@@H](O)[C@H](O)[C@H]1O [#69, Gluconasturtiin] |  |  | growth suppression: both number of nuclei and S-phase cells significantly lower than control [1]: growth suppressive
3 | O=C1O[C@H]2[C@@H]3OC(=O)c4cc(O)c(O)c(O)c4-c4c(O)c(O)c5oc(=O)c6c(c(O)c(O)c7oc(=O)c4c5c76)-c4c(cc(O)c(O)c4O)C(=O)OC[C@H]3OC(O)[C@@H]2OC(=O)c2cc(O)c(O)c(O)c2-c2c1cc(O)c(O)c2O (mixture of isomers) [#31, Punicalagin] | suppressed proliferation | did not greatly diminish cell number; also recorded: without cell number reduction | enterocyte phenotype (alkaline phosphatase expression) ([1]; relative to control): directed cells towards the enterocyte lineage
4 | O=c1oc2c(O)c(O)cc3c(=O)oc4c(O)c(O)cc1c4c23 [#29, Ellagic Acid] | suppressed proliferation | did not greatly diminish cell number | 
5 | CN[C@@H]1C[C@H]2O[C@@](C)([C@@H]1OC)n1c3ccccc3c3c4c(c5c6ccccc6n2c5c31)C(=O)NC4 [#32, Aglycones (Staurosporine), reference compound] | decreased | significantly increased | 
6 | O=C(O)c1cc(O)c(O)c(O)c1 [#28, Gallic Acid] | suppressed proliferation | did not greatly diminish cell number | 
7 | Clc1cc2c(cc1Cl)Oc1cc(Cl)c(Cl)cc1O2 [TCDD, 2,3,7,8-tetrachlorodibenzo-p-dioxin] |  |  | CYP1A1 activity increased compared with the cells treated with toluene vehicle (CYP1A1; 2D monolayer cultured under ENR-WB 5 days, treated 20 hours, EROD assay): 40 fold; CYP1A1 enzyme activity induction by PAHs (CYP1A1; 2D monolayer treated 20 hours, 10 μM βNF, 1 μM BaP, toluene vehicle): effectively demonstrated
8 | CC1=C(/C=C/C(C)=C/C=C/C(C)=C/C=C/C=C(C)/C=C/C=C(C)/C=C/C2=C(C)CCCC2(C)C)C(C)(C)CCC1 [#58, β-carotene] | suppressed proliferation | did not greatly diminish cell number | 
9 | COc1cc(-c2oc3cc(O)cc(O)c3c(=O)c2O)ccc1O [#21, Isorhamnetin] | increased cell numbers in S-phase |  | 
10 | C[S+]([O-])CCCC/C(=N\OS(=O)(=O)O)S[C@@H]1O[C@H](CO)[C@@H](O)[C@H](O)[C@H]1O (some centres unmarked) [#70, Glucoraphanin] |  |  | growth suppression: both number of nuclei and S-phase cells significantly lower than control [1]: growth suppressive
11 | COc1cc(C[C@H]2COC(=O)[C@@H]2Cc2ccc(O)c(OC)c2)ccc1O [#77, Matairesinol] |  |  | goblet cell marker Muc2 or mucin expression ([1]; relative to control, p<0.01): significantly increased; COX-2-derived prostaglandin E2 (Caco-2 cells): increases
12 | CC12CCC(CC1)C(C)(C)O2 [#42, Eucalyptol] | minimized cell proliferation |  | enterocyte phenotype (alkaline phosphatase expression) ([1]; relative to control): increasing alkaline phosphatase expression
13 | C/C(=C\CO)CCC[C@H](C)CCC[C@H](C)CCCC(C)C [#51, Phytol] |  | without cell number reduction | enterocyte phenotype (alkaline phosphatase expression) ([1]; relative to control): directed cells towards the enterocyte lineage
